The target of assay [1] is T1, PTGR2 (Homo sapiens, UniProt Q8N8N7). Nature of the assay: In vitro LCMS-based activity assay for PTGR2 (15-keto-PGE2 reductase activity). In kind it is biochemical. The method, then: Aliquots (1 μL) of test compounds dissolved in DMSO were transferred to 1.5 mL eppendorf tubes followed by addition of recombinant human PTGR2 (44 μL, 200 nM final concentration) in freshly prepared reaction buffer (Tris Buffer, 1 mM EDTA, 50 μM TCEP, 300 μM NADPH). The resulting mixture was vortexed and then incubated at 37° C. for 20 min. Next, a 5 μL solution of 15-keto-PGE2 substrate (20 μM final concentration) in reaction buffer was added and the reaction was allowed to proceed for 30 min at 37° C. Reactions were quenched by the addition of 0.5% AcOH in ethyl acetate (800 μL), water (300 μL) and 100 μL of internal standard PGE2-d4 (30 pmol/sample) dissolved in 1:1 methanol/water. Phases were separated by centrifugation and the organic layer was collected and dried under a stream of N2, then stored at −80° C. until analysis. Directly prior to analysis, samples were reconstituted in 100 μL of MeCN:H2O (1:1, v/v) and analyzed by LC/MS/MS. All conditions were performed in triplicate and repeated at least three independent times.
T1 sequence (Q8N8N7 whole entry): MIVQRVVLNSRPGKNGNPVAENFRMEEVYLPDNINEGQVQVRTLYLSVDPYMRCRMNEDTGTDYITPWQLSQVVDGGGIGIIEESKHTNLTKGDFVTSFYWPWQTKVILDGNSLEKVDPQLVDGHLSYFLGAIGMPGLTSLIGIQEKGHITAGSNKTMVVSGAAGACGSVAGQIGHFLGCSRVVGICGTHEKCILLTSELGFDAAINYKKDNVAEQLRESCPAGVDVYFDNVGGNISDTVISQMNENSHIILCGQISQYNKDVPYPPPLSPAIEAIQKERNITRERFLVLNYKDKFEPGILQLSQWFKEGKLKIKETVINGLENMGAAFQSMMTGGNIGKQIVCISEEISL
The following MS parameters were used to measure the indicated metabolites by MRM (precursor ion, product ion, collision energy, polarity): PGE2-d4 (355, 275, 18), 13,14-dihydro-15-keto-PGE2 (351, 333, 18) and 15-keto-PGE2 (349, 161, 20). 15-keto-PGE2 and 13,14-dihydro-15-keto-PGE2 levels were quantified by determining peak areas in relation to internal standard PGE2-d4. Non-deuterated 15-keto-PGE2 and 13,14-dihydro-15-keto-PGE2 standards were used to confirm retention time and fragmentation.
All data fitting and statistical analysis performed using GraphPad Prism version 6.00 for Windows, GraphPad Software, La Jolla Calif. USA, www.graphpad.com. Statistical values including the exact n and statistical significance are also reported. Probe binding blockade and PTGR2 inhibition curves are plotted as mean±SD (n=3 or 4 per group) for a representative biological replicate using a variable slope (four parameter) non-linear fit. Gene expression data are presented as mean±SD (n=3 per group). HSC5 metabolite data are shown as mean±SD (n=3 per group). Statistical significance was defined as P<0.05 and determined by 2-tailed Student t tests, or two-way ANOVA with Bonferroni's post-tests.

For assay [2], the target named is T1, PTGR2. Nature of the assay: MS-based (SILAC) competition of FFF probe 8 labeling of endogenous PTGR2 in HEK293T cells. Format: binding. The method, then:
For gel-based experiments, cells were grown in 6-well plates to ˜90% confluence at the time of treatment. Cells were carefully washed with Dulbecco's phosphate buffered saline (DPBS) and replenished with fresh serum-free media containing indicated FFF probe, and, if applicable, competitors or DMSO vehicle (1 mL). Following incubation at 37° C. for 30 min, cells were directly exposed to 365 nm light for 10 min. For no UV experiments, cells were incubated at 4° C. for 10 min under ambient light. For MS-based experiments, cell labeling was performed in a similar manner as described above. Modifications to this protocol included using isotopically ‘light’ and ‘heavy’ SILAC cells that were grown to near complete confluence prior to treatment in 10 cm plates. In probe-versus-control probe and probe-versus-probe experiments, isotopically light cells were treated with indicated fragment probe, while the heavy cells were treated with control probe (1), or additional FFF probe to be compared, at indicated concentrations. […]
Cells pellets were lysed in cold DPBS (100-500 µL) using a Branson Sonifier probe sonicator (10 pulses, 30% duty cycle, output setting=4). […] Protein concentration was determined using the DC Protein Assay (Bio-Rad) and absorbance read using a Tecan, Infinite F500 plate reader following manufacturer's instructions. […]

In the case of `COc1ccccc1N1CCN(C(=O)Cc2ccccc2)CC1` [Compound 22, 1-(4-(2-Methoxyphenyl)piperazin-1-yl)-2-phenylethan-1-one], the “effect on 15-keto-PGE2 reductase (catalytic) activity of recombinant PTGR2” value on PTGR2 [1] was “inhibited”. The “increased potency relative to 20” value at PTGR2 [1] (in assays measuring either competition of 8-labeling or 15-keto-PGE2 reductase activity of recombinant PTGR2) was more than 20 fold. Also, the 50% inhibitory concentration (IC50) at PTGR2 [1] (recombinant PTGR2, read-out: IC50 for inhibition of PTGR2-mediated reduction of 15-keto-PGE2 (15-keto-PGE2 reductase activity)) was determined as 600 nM. This compound also displayed an inhibition at 0.5 µM on PTGR2 [2] (500 nM) of approximately 80%. For the same compound, the “inhibition of FFF 8 labeling of endogenous PTGR2” value at PTGR2 [2] (5 μM) is “complete inhibition”.

These data come from patent US11535597B2, “Photoreactive ligands and uses thereof” (The Scripps Research Institute, priority 2017, dated 2022).
